Assay results as given in publication PMC8246325, “Toxicity of Jegosaponins A and B from Styrax japonica Siebold et al. Zuccarini in Prostate Cancer Cells and Zebrafish Embryos Resulting from Increased Membrane Permeability” (International Journal of Molecular Sciences, 2021).

Tests used:
[1] = tested on: PC-3 prostate cancer cells; assay: Cell viability assay (CellTiter-Glo) in PC-3 cells; format: cell-based, human; details: for Suppression of viability of PC-3 cells: 1 µM, 48 h (Figure S1); for CC50: Homo sapiens, PC-3 cells, 48 h treatment, read-out: PC-3 cell viability, lethal concentration 50 (LC50)
Experimental: (§1) Human prostate cancer PC-3, […], and LNCaP cells were obtained from Riken Bioresource Center (Tokyo, Japan) and cultured in Dulbecco’s modified Eagle medium-low glucose (DMEM; Sigma-Aldrich, St. Louis, MO, USA), supplemented with 10% fetal bovine serum (FBS; Biowest SAS, Nuaille, France) and 1% penicillin-streptomycin (Fujifilm Wako Pure Chemicals) at 37 °C in a humidified 5% CO2 atmosphere. For screening, the cells were seeded (3 × 10^3 cells/well) in a 96-well plate and cultured for 24 h in DMEM supplemented with 1% FBS. The tested compounds were then administered to the cells. Forty-eight hours after administration, cell viability was measured using the CellTiter-Glo luminescent cell viability assay (Promega, Madison WI, USA) according to the manufacturer’s protocol. Luminescence signals were measured using a Victor2 microplate reader (PerkinElmer, Boston, MA, USA). For the negative control (0 μM jegosaponin A and B), 0.1% dimethyl sulfoxide (vehicle) was used. Cell viability was calculated as the ratio of the negative controls. The assay was performed in triplicate.

DU145 = assay: Cell viability assay (CellTiter-Glo) in DU145 cells; format: cell-based, human; details: 1 µM, 48 h (Figure S1)
Experimental: as §1

LNCaP = assay: Cell viability assay (CellTiter-Glo) in LNCaP cells; format: cell-based, human; details: 1 µM, 48 h (Figure S1)
Experimental: as §1

[2] = Zebrafish embryo acute toxicity test (ZFET); set-up: species or system zebrafish (Danio rerio); details: AB, in vivo, other: embryos exposed in 6-well plates; for LC50 at 120 h: embryos exposed from 5 hpf to 120 hpf; for LC50 at 24 h: embryos exposed from 5 hpf, 24 h after administration (to 24 hpf)
Experimental: Zebrafish AB strain (Zebrafish International Resource Center, Eugene, OR, USA) was maintained in our facility according to standard operational guidelines. All animal procedures were performed by the Ethics Committee of Mie University, according to the Japanese Animal Welfare Regulation ‘Act on Welfare and Management of Animals’ (Ministry of Environment of Japan), and complied with international guidelines.
ZFETs were performed as previously reported. In brief, blastula stage embryos (approximately 5 h post fertilisation (hpf)) were transferred into 6-well plates and exposed to jegosaponin A or B at 28 °C until 120 hpf. Each group contained nine fish in three triplicates. The number of surviving embryos was counted every 24 h.

sheep red blood cells = assay: Haemolysis assay; format: cell-based; details: Ovis aries, Erythrocyte; RBC, 1 h (Table 1); read-out: RBC Hemolysis HD50 (1 h)
Experimental: A haemolysis assay was performed as previously reported. Five millilitres of sheep defibrinated blood (Nippon Bio-Supp. Centre, Tokyo, Japan) was diluted in 45 mL of Dulbecco’s phosphate-buffered saline (DPBS) to obtain a total volume of 50 mL. The cell suspension was centrifuged at 500× g for 5 min, and the supernatant was discarded. This procedure was repeated three times, and DPBS was added to the precipitate, and the red blood cell (RBC) count was adjusted to ~5×10^8 cells/mL. The RBC suspension (500 µL) was placed into a 1.5 mL storage tube, and the reagent was administered and incubated for 30 min on ice. […] The cell suspension was then centrifuged at 500× g for 5 min. The haemoglobin concentration in the supernatant was measured by measuring the UV absorbance at 540 nm.

PC-3 cells = assay: DRAQ7 membrane permeability assay in PC-3 cells; format: cell-based; details: Homo sapiens; for IC50: 1 h (Table 1); for EC50: DRAQ7 membrane-impermeable dye, read-out: EC50 of DRAQ7 nucleus staining (DRAQ7 positive cells)
Experimental: (§2) PC-3 cells were seeded (4 × 10^3 cells/well) in ibidi 8-well μ-Slide (Ibidi, Munich, Germany) in DMEM supplemented with 10% FBS and cultured for 24 h. Then, DRAQ7 (DRAQ7 DROP & GO; Biostatus, Shepshed, UK) and the tested compounds were added to the cells. After an appropriate time, the cells were imaged using a BZ-X710 fluorescence microscope (Keyence, Tokyo, Japan). For zebrafish embryos, 48 hpf embryos were treated with DRAQ7 and the tested compounds and imaged using a BZ-X710 fluorescent microscope.

48 hpf zebrafish = assay: DRAQ7 membrane permeability assay in zebrafish; format: in vivo, zebrafish (Danio rerio); details: for Lethality to zebrafish embryos at high concentration: 60 min; for DRAQ7 signals in zebrafish (cell membrane permeability): 30 min of exposure, mainly tail regions
Experimental: as §2

caspase-3 and caspase-7 = assay: Caspase 3/7 assay (Caspase-Glo 3/7) in PC-3 cells; format: cell-based, human; details: for Caspase 3/7 activities in PC-3 cells: 3 or 6 h; for Induction of caspase-3 and caspase-7 activities: PC-3 cells, sub-IC50 concentrations
Experimental: PC-3 cells were seeded (3 × 10^3 cells/well) in a 96-well plate in DMEM containing 10% FBS for 24 h and treated with the test compounds. Caspase-Glo 3/7 assay (Promega) was performed according to the manufacturer’s instructions. Luminescence signals were measured using a Victor2 microplate reader (PerkinElmer).

| SMILES | Suppression of viability of PC-3 cells [1] | CC50 [1] [nM] | LC50 at 120 h [2] [nM] | LC50 at 24 h [2] [nM] | EC50 (sheep red blood cells) [nM] | IC50 (PC-3 cells) [nM] | EC50 (PC-3 cells) [nM] | DRAQ7 signals in zebrafish (cell membrane permeability) (48 hpf zebrafish) | Induction of caspase-3 and caspase-7 activities (caspase-3 and caspase-7) | also measured |
| --- | --- | --- | --- | --- | --- | --- | --- | --- | --- | --- |
| C/C=C(\C)C(=O)O[C@H]1[C@H](O)[C@@]2(COC(C)=O)C(CC1(C)C)C1=CCC3[C@@]4(C)CC[C@H](O[C@@H]5O[C@H](C(=O)O)[C@@H](O[C@@H]6O[C@H](CO)[C@H](O)[C@H](O)[C@H]6O[C@@H]6O[C@@H](C)[C@H](O)[C@@H](O)[C@H]6O)[C@H](O)[C@H]5O[C@@H]5O[C@H](CO)[C@@H](O)[C@H](O)[C@H]5O)C(C)(C)C4CC[C@@]3(C)[C@]1(C)C[C@H]2O (stereo partly drawn) [Jegosaponin B, jegosaponin B] | suppress viability | 1600 | 1300 | 1400 | 20200 | 6000 | 6000 ± 1200 | apparently increased DRAQ7 signals | no apparent induction of their activities | Suppression of viability of DU145 cells (DU145; listed as B): suppress viability; Suppression of viability of DU145 cells (DU145; listed as jegosaponin B): suppressed the viability; Suppression of viability of LNCaP cells (LNCaP; listed as B): suppress viability; Suppression of viability of LNCaP cells (LNCaP; listed as jegosaponin B): suppressed the viability; Lethality to zebrafish embryos at high concentration (48 hpf zebrafish; 12 μM): killed all embryos; Caspase 3/7 activities in PC-3 cells (caspase-3 and caspase-7; 0.5 µM): do not affect caspase 3/7 activities |
| C/C=C(\C)C(=O)O[C@H]1[C@H](OC(C)=O)[C@@]2(CO)C(CC1(C)C)C1=CCC3[C@@]4(C)CC[C@H](O[C@@H]5O[C@H](C(=O)O)[C@@H](O[C@@H]6O[C@H](CO)[C@H](O)[C@H](O)[C@H]6O[C@@H]6O[C@@H](C)[C@H](O)[C@@H](O)[C@H]6O)[C@H](O)[C@H]5O[C@@H]5O[C@H](CO)[C@@H](O)[C@H](O)[C@H]5O)C(C)(C)C4CC[C@@]3(C)[C@]1(C)C[C@H]2O (stereo partly drawn) [Jegosaponin A, jegosaponin A] | suppress viability | 700 | 500 | 700 | 2100 | 3400 | 3400 ± 600 | apparently increased DRAQ7 signals | no apparent induction of their activities | Suppression of viability of DU145 cells (DU145): suppress viability; Suppression of viability of DU145 cells (DU145; listed as jegosaponin A): suppressed the viability; Suppression of viability of LNCaP cells (LNCaP): suppress viability; Suppression of viability of LNCaP cells (LNCaP; listed as jegosaponin A): suppressed the viability; Lethality to zebrafish embryos at high concentration (48 hpf zebrafish; 6 μM): killed all embryos; Caspase 3/7 activities in PC-3 cells (caspase-3 and caspase-7; 1.5 µM): do not affect caspase 3/7 activities |
